# Assay results: ChEMBL document CHEMBL1147116 (Antimicrob Agents Chemother, 2007)
# Experiments:
# [1] = Peak free concentration at 875 mg/24 hrs regimen in vitro PK model; assay type: ADME
# Streptococcus pneumoniae [2] = experiment: microbe, parasite or virus in culture; settings: Staphylococcus aureus, ATCC 49619
# Streptococcus pneumoniae [3] = experiment: microbe, parasite or virus in culture; settings: Staphylococcus aureus, BSP2443
# Streptococcus pneumoniae [4] = experiment: microbe, parasite or virus in culture; settings: Staphylococcus aureus, BSP2443; remark: listed apart in the source
# Streptococcus pneumoniae [5] = experiment: microbe, parasite or virus in culture; settings: Staphylococcus aureus, ATCC 49619; remark: listed apart in the source
# Streptococcus pneumoniae [6] = experiment: microbe, parasite or virus in culture; settings: Staphylococcus aureus, BSP2443; remark: listed apart in the source
# [7] = Half life at 500 mg/24 hrs regimen in vitro PK model; assay type: ADME
# [8] = Half life at 1000 mg/24 hrs regimen in vitro PK model; assay type: ADME
# [9] = Peak free concentration at 812.5 mg/24 hrs regimen in vitro PK model; assay type: ADME
# Streptococcus pneumoniae [10] = experiment: fAUC/MIC ratio of Streptococcus pneumoniae ATCC 49610 at 1000 mg
# Streptococcus pneumoniae [11] = experiment: microbe, parasite or virus in culture; settings: Staphylococcus aureus, ATCC 49619; remark: listed apart in the source
# [12] = Peak free concentration at 500 mg/24 hrs regimen in vitro PK model; assay type: ADME
# [13] = Peak free concentration at 1000 mg/24 hrs regimen in vitro PK model; assay type: ADME
# Streptococcus pneumoniae [14] = experiment: microbe, parasite or virus in culture; settings: Staphylococcus aureus, BSP2443, 96 h
# Streptococcus pneumoniae [15] = experiment: microbe, parasite or virus in culture; settings: Staphylococcus aureus, BSP2443, 96 h; remark: listed apart in the source
# Streptococcus pneumoniae [16] = experiment: Susceptibility of Streptococcus pneumoniae BSP-2443 by microdilution method; assay type: functional; settings: BSP2443
# [17] = Half life at 843.5 mg/24 hrs regimen in vitro PK model; assay type: ADME
# Streptococcus pneumoniae [18] = experiment: microbe, parasite or virus in culture; settings: Staphylococcus aureus, ATCC 49619; remark: listed apart in the source
# Streptococcus pneumoniae [19] = experiment: microbe, parasite or virus in culture; settings: Staphylococcus aureus, ATCC 49619, 24 h
# [20] = Half life at 875 mg/24 hrs regimen in vitro PK model; assay type: ADME
# Streptococcus pneumoniae [21] = experiment: microbe, parasite or virus in culture; settings: Staphylococcus aureus, BSP2443; remark: listed apart in the source
# Streptococcus pneumoniae [22] = experiment: fAUC/MIC ratio of Streptococcus pneumoniae ATCC 49610 at 500 mg
# [23] = Peak free concentration at 750 mg/24 hrs regimen in vitro PK model; assay type: ADME
# [24] = Half life at 812.5 mg/24 hrs regimen in vitro PK model; assay type: ADME
# Streptococcus pneumoniae [25] = experiment: fAUC/MIC ratio of Streptococcus pneumoniae ATCC 49610 at 843.5 mg
# Streptococcus pneumoniae [26] = experiment: fAUC/MIC ratio of Streptococcus pneumoniae BSP-2443 at 843.5 mg
# Streptococcus pneumoniae [27] = experiment: fAUC/MIC ratio of Streptococcus pneumoniae ATCC 49610 at 875 mg
# Streptococcus pneumoniae [28] = experiment: fAUC/MIC ratio of Streptococcus pneumoniae BSP-2443 at 875 mg
# Streptococcus pneumoniae [29] = experiment: microbe, parasite or virus in culture; settings: Staphylococcus aureus, BSP2443; remark: listed apart in the source
# [30] = Half life at 750 mg/24 hrs regimen in vitro PK model; assay type: ADME
# Streptococcus pneumoniae [31] = experiment: fAUC/MIC ratio of Streptococcus pneumoniae ATCC 49610 at 750 mg
# Streptococcus pneumoniae [32] = experiment: microbe, parasite or virus in culture; settings: Staphylococcus aureus, ATCC 49619, 24 h; remark: listed apart in the source
# Streptococcus pneumoniae [33] = experiment: fAUC/MIC ratio of Streptococcus pneumoniae BSP-2443 at 937.5 mg
# Streptococcus pneumoniae [34] = experiment: fAUC/MIC ratio of Streptococcus pneumoniae BSP-2443 at 1000 mg
# Streptococcus pneumoniae [35] = experiment: microbe, parasite or virus in culture; settings: Staphylococcus aureus, ATCC 49619; remark: listed apart in the source
# Streptococcus pneumoniae [36] = experiment: fAUC/MIC ratio of Streptococcus pneumoniae BSP-2443 at 750 mg
# Streptococcus pneumoniae [37] = experiment: microbe, parasite or virus in culture; settings: Staphylococcus aureus, ATCC 49619; remark: listed apart in the source
# Streptococcus pneumoniae [38] = experiment: fAUC/MIC ratio of Streptococcus pneumoniae BSP-2443 at 812.5 mg
# Streptococcus pneumoniae [39] = experiment: fAUC/MIC ratio of Streptococcus pneumoniae ATCC 49610 at 812.5 mg
# Streptococcus pneumoniae [40] = experiment: Susceptibility of Streptococcus pneumoniae ATCC 49619 by microdilution method; assay type: functional
# Streptococcus pneumoniae [41] = experiment: microbe, parasite or virus in culture; settings: Staphylococcus aureus, BSP2443; remark: listed apart in the source
# Streptococcus pneumoniae [42] = experiment: microbe, parasite or virus in culture; settings: Staphylococcus aureus, ATCC 49619, 24 h; remark: listed apart in the source
# [43] = Peak free concentration at 843.5 mg/24 hrs regimen in vitro PK model; assay type: ADME
# Streptococcus pneumoniae [44] = experiment: microbe, parasite or virus in culture; settings: Staphylococcus aureus, BSP2443, 96 h; remark: listed apart in the source
# Streptococcus pneumoniae [45] = experiment: Bactericidal activity against Streptococcus pneumoniae BSP-2443 with parC S52G, N91D mutation and gyrA S114G mutation at fAUC/MIC of 24 after 96 hrs in pharmacodynamic model; settings: BSP2443, 96 h
# Streptococcus pneumoniae [46] = experiment: microbe, parasite or virus in culture; settings: Staphylococcus aureus, BSP2443; remark: listed apart in the source
# Streptococcus pneumoniae [47] = experiment: microbe, parasite or virus in culture; settings: Staphylococcus aureus, ATCC 49619; remark: listed apart in the source
# [48] = Peak free concentration at 200 mg/24 hrs regimen in vitro PK model; assay type: ADME
# Streptococcus pneumoniae [49] = experiment: microbe, parasite or virus in culture; settings: Staphylococcus aureus, ATCC 49619; remark: listed apart in the source
# Streptococcus pneumoniae [50] = experiment: microbe, parasite or virus in culture; settings: Staphylococcus aureus, ATCC 49619; remark: listed apart in the source
# Streptococcus pneumoniae [51] = experiment: microbe, parasite or virus in culture; settings: Staphylococcus aureus, BSP2443; remark: listed apart in the source
# Staphylococcus aureus [52] = experiment: Bactericidal activity against Staphylococcus aureus ATCC 49619 at fAUC/MIC of […] after 96 hrs in pharmacodynamic model; assay type: functional; settings: ATCC 49619, 96 h
# Staphylococcus aureus [53] = experiment: Bactericidal activity against Staphylococcus aureus ATCC 49619 at fAUC/MIC of […] after 72 hrs in pharmacodynamic model; assay type: functional; settings: ATCC 49619, 72 h
# [54] = Peak free concentration at 50 mg/24 hrs regimen in vitro PK model; assay type: ADME
# Streptococcus pneumoniae [55] = experiment: microbe, parasite or virus in culture; settings: Staphylococcus aureus, ATCC 49619; remark: listed apart in the source
# Streptococcus pneumoniae [56] = experiment: microbe, parasite or virus in culture; settings: Staphylococcus aureus, BSP2443; remark: listed apart in the source
# [57] = Peak free concentration at 75 mg/24 hrs regimen in vitro PK model; assay type: ADME
# [58] = Peak free concentration at 100 mg/24 hrs regimen in vitro PK model; assay type: ADME
# [59] = Peak free concentration at 400 mg/24 hrs regimen in vitro PK model; assay type: ADME
# Streptococcus pneumoniae [60] = experiment: microbe, parasite or virus in culture; settings: Staphylococcus aureus, BSP2443, 72 h
# Streptococcus pneumoniae [61] = experiment: microbe, parasite or virus in culture; settings: Staphylococcus aureus, ATCC 49619; remark: listed apart in the source
# Streptococcus pneumoniae [62] = experiment: Bactericidal activity against Streptococcus pneumoniae BSP-2443 with parC S52G, N91D mutation and gyrA S114G mutation at fAUC/MIC of 24 after 72 hrs in pharmacodynamic model; settings: BSP2443, 72 h
structure (smiles),measurement,setting,value
C[C@H]1COc2c(N3CCN(C)CC3)c(F)cc3c(=O)c(C(=O)O)cn1c23.C[C@H]1COc2c(N3CCN(C)CC3)c(F)cc3c(=O)c(C(=O)O)cn1c23.O [LEVOFLOXACIN],Activity,[1],7.19 µg/mL
same,MIC,Streptococcus pneumoniae [2],> 32 µg/mL
same,MIC,Streptococcus pneumoniae [3],0.75 µg/mL
same,MIC,Streptococcus pneumoniae [4],> 32 µg/mL
same,MIC,Streptococcus pneumoniae [5],0.75 µg/mL
same,MIC,Streptococcus pneumoniae [6],0.75 µg/mL
same,half-life,[7],8.01 h
same,half-life,[8],7.85 h
same,Activity,[9],6.78 µg/mL
same,fAUC/MIC,Streptococcus pneumoniae [10],114
same,MIC,Streptococcus pneumoniae [11],0.75 µg/mL
same,Activity,[12],4.1 µg/mL
same,Activity,[13],8.75 µg/mL
same,MIC,Streptococcus pneumoniae [14],2 µg/mL
same,MIC,Streptococcus pneumoniae [15],> 32 µg/mL
same,MIC,Streptococcus pneumoniae [16],0.025 µg/mL
same,half-life,[17],6.98 h
same,MIC,Streptococcus pneumoniae [18],> 32 µg/mL
same,MIC,Streptococcus pneumoniae [19],1.5 µg/mL
same,half-life,[20],8.02 h
same,MIC,Streptococcus pneumoniae [21],0.75 µg/mL
same,fAUC/MIC,Streptococcus pneumoniae [22],55
same,Activity,[23],6.13 µg/mL
same,half-life,[24],7.06 h
same,fAUC/MIC,Streptococcus pneumoniae [25],89
same,fAUC/MIC,Streptococcus pneumoniae [26],86
same,fAUC/MIC,Streptococcus pneumoniae [27],97
same,fAUC/MIC,Streptococcus pneumoniae [28],94
same,MIC,Streptococcus pneumoniae [29],0.75 µg/mL
same,half-life,[30],7.52 h
same,fAUC/MIC,Streptococcus pneumoniae [31],79
same,MIC,Streptococcus pneumoniae [32],1.5 µg/mL
same,fAUC/MIC,Streptococcus pneumoniae [33],104
same,fAUC/MIC,Streptococcus pneumoniae [34],117
same,MIC,Streptococcus pneumoniae [35],> 32 µg/mL
same,fAUC/MIC,Streptococcus pneumoniae [36],75
same,MIC,Streptococcus pneumoniae [37],0.75 µg/mL
same,fAUC/MIC,Streptococcus pneumoniae [38],83
same,fAUC/MIC,Streptococcus pneumoniae [39],82
same,MIC,Streptococcus pneumoniae [40],0.025 µg/mL
same,MIC,Streptococcus pneumoniae [41],0.75 µg/mL
same,MIC,Streptococcus pneumoniae [42],0.75 µg/mL
same,Activity,[43],7.09 µg/mL
COc1c(N2C[C@@H]3CCCN[C@@H]3C2)c(F)cc2c(=O)c(C(=O)O)cn(C3CC3)c12 [MOXIFLOXACIN],MIC,Streptococcus pneumoniae [44],4 µg/mL
same,MIC,Streptococcus pneumoniae [45],1.5 µg/mL
same,MIC,Streptococcus pneumoniae [46],0.25 µg/mL
same,MIC,Streptococcus pneumoniae [47],0.125 µg/mL
same,MIC,Streptococcus pneumoniae [16],0.025 µg/mL
same,Activity,[48],1.1 µg/mL
same,MIC,Streptococcus pneumoniae [49],0.125 µg/mL
same,MIC,Streptococcus pneumoniae [50],0.125 µg/mL
same,MIC,Streptococcus pneumoniae [51],0.25 µg/mL
same,MIC,Staphylococcus aureus [52],0.75 µg/mL
same,MIC,Staphylococcus aureus [53],0.19 µg/mL
same,Activity,[54],0.3 µg/mL
same,MIC,Streptococcus pneumoniae [55],0.125 µg/mL
same,MIC,Streptococcus pneumoniae [56],0.25 µg/mL
same,Activity,[57],0.45 µg/mL
same,Activity,[58],0.6 µg/mL
same,Activity,[59],2.48 µg/mL
same,MIC,Streptococcus pneumoniae [60],4 µg/mL
same,MIC,Streptococcus pneumoniae [61],0.125 µg/mL
same,MIC,Streptococcus pneumoniae [62],0.38 µg/mL
same,MIC,Streptococcus pneumoniae [40],0.025 µg/mL
